Test results as given in patent US10111901B2, “Beta-glucan in combination with anti-cancer agents affecting the tumor microenvironment” (Biothera, Inc., priority 2014, dated 2018).

What was measured:
[1] = tested on: M1 macrophages; test: Flow cytometry of M1/M2-specific markers on M1 macrophages derived from vehicle- or β-glucan-treated whole blood; format: cell-based, human
Procedure: (§1) CD14^+ monocytes from human whole blood were enriched using Ficoll gradient and magnetic bead separation. Enriched monocytes (5×10^5 cells per mL) were then cultured in either M1-polarizing (XVivo 10 media (Lonza Group) supplemented with 5% autologous serum and 100 ng/mL recombinant human granulocyte macrophage colony-stimulating factor (rhGM-CSF) (R&D Systems) or M2-polarizing (XVivo 10 media supplemented with 10% autologous serum and 50 ng/mL recombinant human macrophage colony-stimulating factor (rhM-CSF) (R&D Systems) conditions for 6 days. In experiments performed to evaluate the effect of β-glucan, whole blood was first incubated with vehicle (sodium citrate buffer) or 25 μg/mL soluble β-glucan for 2 hours at 37° C. and then the monocytes were isolated and differentiated. Morphology was checked before macrophages were harvested for phenotypic analysis. Culture medium of the day 6 macrophage culture (MCM) was collected, spun down to remove contaminated cell pellet and then frozen down for subsequent cytokine analysis by ELISA or used to setup a co-culture with CD3 & CD28-stimulated CD4 T cells (MCM-CD4 T) for evaluation of either surface markers or CD4 T cell proliferation. The macrophages were used to setup a co-culture with CD3 & CD28- or CD3 only-stimulated CD4 T cells (Mac-CD4 T) on day 6 for evaluation of either surface marker modulation or effect on CD4 T cell proliferation. For Mac-CD4 T cell proliferation study, M1 or M2 macrophages were cultured with CD3 & CD28- or CD3 only-stimulated, CFSE-labeled, autologous CD4 T cells at a 1:10 ratio. T cell proliferation was measured at the end of the experiment (day 9-day 11) by flow cytometry, and results are graphically shown as CFSE-dilution peaks. The assessment of CD3-only stimulated T cells was always done on day 11. Quantitative results were reported as the Division Index (the average number of cell divisions a population underwent) calculated for each of the triplicate wells in each of the culture conditions. Culture supernatants of Mac-CD4 T co-cultures were collected for subsequent cytokine analysis.
M1 and M2 macrophages from vehicle- or β-glucan-treated whole blood were prepared as described above. […] In addition, surface expression of CD86 was enhanced as well as both protein and mRNA levels of PD-L1 (FIG. 2B).
Expression of a panel of markers was evaluated by flow cytometry for vehicle- and β-glucan-treated, high binder-derived M1 and M2 macrophages (CD163 was evaluated twice).
CD163 and CD86 were evaluated by flow cytometry for vehicle- and β-glucan-treated, low binder-derived M1 and M2 macrophages.

[2] = tested on: M2a macrophages; test: Flow cytometry of CD163 and CD86 on activated M2a macrophages cultured in IL-4; format: cell-based, human; settings: M2a macrophages cultured in IL-4, immunosuppressive conditions
Procedure: Steps for an alternative method for in vitro culture and characterization of human macrophages that includes activation of M1 and M2 macrophages (designated M1a and M2a macrophages) are outlined below. This methodology was used in the next series of experiments.
Phenotypic and functional evaluation of β-glucan-treated M2a and β-glucan-treated M2 macrophages in the presence of immunosuppressive cytokines was carried out. M2 or M2a macrophages were prepared as described above. On day 3, tumor-conditioned medium (TCM) was added M2 macrophage cultures to account for 70% of the volume of the culture and then evaluated for CD163 expression and functional activity on day 6. […] M2a macrophages were cultured in IL-4 as described above.
The β-glucan-treated M2a macrophages cultured in IL-4 and M2 macrophages cultured in TCM were first evaluated for CD163 and CD86 expression. CD163 and CD86 were evaluated by flow cytometry and median MFI was calculated for isotype control staining and surface antigen staining and the results are shown in Table 5.

[3] = tested on: CD4 T cells; test: Mac-CD4 T cell proliferation assay (CFSE dilution, Division Index); format: cell-based, human
Procedure: as §1
Next, vehicle- or β-glucan-treated M1 or M2 macrophages were cultured with CD3 and CD28-stimulated, carboxyfluorescein diacetate succinimidyl ester (CFSE)-labeled autologous CD4 T cells and T cell proliferation was measured at the end of the experiment by flow cytometry and results quantitatively reported as division index (the average number of cell divisions a population has undergone).
Next, the ability of M1/M2 macrophages derived from soluble β-glucan-treated monocytes from high binders and low binders to enhance CD3 & CD28-stimulated CD4 T cell proliferation was evaluated.
Evaluation of cell-to-cell contact was carried out as follows: vehicle- and β-glucan-treated M2 macrophages and CD3 & CD28− versus CD3 only-stimulated CD4 T cell co-cultures were utilized for measuring CD4 T cell proliferation and IFN-γ production.

[4] = tested on: tumor cell lines, including NSCLC, breast, pancreatic, colon, and B cell lymphoma; test: PD-L1 expression on tumor cell lines incubated with supernatant of M2 macrophage/MoDC and T cell co-culture; format: cell-based; settings: supernatants of proliferation assays, 48 hours
Procedure: M2 macrophages and MoDC were prepared as described above. The macrophages and the MoDC were subsequently used in T cell proliferation assays as described previously. The supernatants from these proliferation assays were harvested and incubated with various tumor cell lines, including NSCLC, breast, pancreatic, colon, and B cell lymphoma. The expression of PD-L1 on these tumor cell lines were evaluated post 48 hours by flow cytometry. Shown in FIG. 15 are representative results from 3 different experiments.

[5] = tested on: MC38 tumor cells; test: MC38 tumor model, tumor-free survival; format: in vivo; settings: C57BL/6 mice, MC38 s.c.; biweekly from day 3; 1.2 mg/mouse IMPRIME PGG, 100 μs/mouse anti-PDL-1; survivors/group size
Procedure: In another animal study, mice were injected with MC38 tumor cells and randomized into treatment groups. 8 to 12 week-old female C57BL/6 mice were injected with 1×10^6 MC38 tumor cells, a colon adenocarcinoma that expresses low levels of PD-L1, in a volume of 0.1 ml injected subcutaneously in the flank. Mice were dosed biweekly starting on day 3 with the following agents: • 0.2 ml/mouse vehicle • 1.2 mg/mouse IMPRIME PGG (Biothera, Inc.) • 100 μs/mouse anti-PDL-1 Clone: 10F.9G2 BioXcell Catalog#: BE0101
Blood samples were collected 1 hour prior to dose 1, 2 hours after dose 3, the endpoint and 2 hours after the last dose (day 20). Treatment groups included vehicle (PBS control), IMPRIME PGG alone, anti-PD-L1 antibody alone and anti-PD-L1+IMPRIME PGG. Tumors were randomized to treatment groups once sizes reached a group mean of 150 mm^3.

[6] = M1 macrophages, high binder, 25 μg/mL

Substance: β(1,6)-[poly-(1,3)-D-glucopyranosyl]-poly-β(1,3)-D-glucopyranose [β-glucan]
- CD86 median MFI [1, 6]: 2113
- CD163 (1) median MFI [1, 6]: 158
- CD163 (2) median MFI [1, 6]: 230
- CD206 median MFI [1, 6]: 816
- CD209 median MFI [1, 6]: 318
- CD274 (PD-L1) median MFI [1, 6]: 5563
- HLA-DR median MFI ([1]; M1 macrophages, high binder, whole blood treated with 25 μg/mL soluble β-glucan 2 hours): 667
- CD86 median MFI ([1]; M1 macrophages, low binder): 3179
- CD163 median MFI ([1]; M1 macrophages, low binder): 132
- M1 macrophage phenotype (panel of M1/M2-specific markers) ([1]; β-glucan pretreatment of whole blood): did not affect M1 macrophage phenotype
- CD86 median MFI [2]: 4572
- CD163 median MFI [2]: 309
- CD4 T cell proliferation ([3]; M2 macrophages cultured in TCM and M2a macrophages cultured in IL-4, vs vehicle-treated): maintained the ability to enhance CD4 T cell proliferation
- CD3 & CD28-stimulated CD4 T cell proliferation ([3]; β-glucan-treated M1 macrophages, high binders or low binders): no differences
- CD3 & CD28-stimulated CD4 T cell proliferation ([3]; β-glucan-treated M2 macrophages vs vehicle-treated, high binders): significantly higher ability to enhance
- CD4 T cell proliferation ([3]; β-glucan-treated M2 macrophages with CD3 and CD28-stimulated CD4 T cells, FIG. 2C): enhance CD4 T cell proliferation
- CD4 T cell proliferation ([3]; β-glucan-treated M2 macrophages, absence of exogenous CD28 antibody (CD3 only)): significantly higher ability to enhance
- CD3 & CD28-stimulated CD4 T cell proliferation ([3]; β-glucan-treated M2 macrophages, low binders): no enhanced proliferation
- PD-L1 expression on the tumor cell lines [4]: enhances PD-L1 expression
- Tumor-free Survivors (day 29) [5]: 2/18
